From BindingDB's records for doi:10.1021/jm00001a012 (Ciba-Geigy, 1995)

Molecular target: 5-lipoxygenase (Cavia porcellus)
Assay: In vitro 5-lipoxygenase inhibitory activity against A-23187-stimulated conversion of [14C]AA to LTB4 in guinea pig peritoneal polymorphonuclear leukocytes

- IC50: 97 nM
Compound: NC(=O)N(O)C[C@H]1COc2ccc(Oc3ccc(F)cc3)cc2O1 [(2S)-2-[[N-(aminocarbonyl)-N-hydroxyamino]methyl]-7-(4-fluorophenoxy)-1,4-benzodioxan]
